Laboratory results published in PubChem BioAssay (NCI).
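Tested at 5 concentrations; 48 h exposure; 96-well plates; endpoints linearly interpolated, else capped at highest concentration. GI50 marks 50% less growth. The concentration for full growth arrest is given as TGI.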

Assays:
Assay in all cases: NCI anticancer screen, dose series, 48 h
NCI-H23 lung = system: NCI-H23 lung
NCI-H460 lung = system: NCI-H460 lung
NCI-H522 lung = system: NCI-H522 lung
NCI/ADR-RES ovarian = system: NCI/ADR-RES ovarian
OVCAR-3 ovarian = system: OVCAR-3 ovarian
OVCAR-4 ovarian = system: OVCAR-4 ovarian
OVCAR-5 ovarian = system: OVCAR-5 ovarian
OVCAR-8 ovarian = system: OVCAR-8 ovarian
PC-3 prostate = system: PC-3 prostate
RPMI-8226 leukemia = system: RPMI-8226 leukemia
RXF 393 renal = system: RXF 393 renal
SF-268 CNS = system: SF-268 CNS
SF-295 CNS = system: SF-295 CNS
SF-539 CNS = system: SF-539 CNS
SK-MEL-2 melanoma = system: SK-MEL-2 melanoma
SK-MEL-28 melanoma = system: SK-MEL-28 melanoma
SK-MEL-5 melanoma = system: SK-MEL-5 melanoma
SK-OV-3 ovarian = system: SK-OV-3 ovarian
SN12C renal = system: SN12C renal
SNB-19 CNS = system: SNB-19 CNS
SNB-75 CNS = system: SNB-75 CNS
SW-620 colon = system: SW-620 colon
T-47D breast = system: T-47D breast
TK-10 renal = system: TK-10 renal
U251 CNS = system: U251 CNS
UACC-62 melanoma = system: UACC-62 melanoma
UO-31 renal = system: UO-31 renal

Q: With `COC(=O)C(N)CSC(c1ccccc1)(c1ccccc1)c1ccccc1` (centres undefined) as the molecule, how does the GI50 (NCI-H23 lung) read?
A: Its GI50 is 4.45 µM.

Q: And the TGI (NCI-H23 lung)?
A: The TGI was over 100 µM.

Q: What about the GI50 (NCI-H460 lung) of the same molecule?
A: Its GI50 is 2.42 µM.

Q: What about the TGI (NCI-H460 lung) of the same molecule?
A: Its TGI is 43.8 µM.

Q: And the GI50 (NCI-H522 lung)?
A: The GI50 was 0.334 µM.

Q: And the TGI (NCI-H522 lung)?
A: Its TGI is 2.22 µM.

Q: And the GI50 (NCI/ADR-RES ovarian)?
A: Its GI50 is 8.81 µM.

Q: And the TGI (NCI/ADR-RES ovarian)?
A: Its TGI is 73.5 µM.

Q: What about the GI50 (OVCAR-3 ovarian) of the same molecule?
A: Its GI50 is 2.97 µM.

Q: What about the TGI (OVCAR-3 ovarian) of the same molecule?
A: Its TGI is 44.8 µM.

Q: What about the GI50 (OVCAR-4 ovarian) of the same molecule?
A: The GI50 was 15.5 µM.

Q: And the TGI (OVCAR-4 ovarian)?
A: Its TGI is over 100 µM.

Q: And the GI50 (OVCAR-5 ovarian)?
A: Its GI50 is 3.84 µM.

Q: And the TGI (OVCAR-5 ovarian)?
A: The TGI was over 100 µM.

Q: And the GI50 (OVCAR-8 ovarian)?
A: The GI50 was 2.53 µM.

Q: And the TGI (OVCAR-8 ovarian)?
A: Its TGI is over 100 µM.

Q: What about the GI50 (PC-3 prostate) of the same molecule?
A: Its GI50 is 1.72 µM.

Q: What about the TGI (PC-3 prostate) of the same molecule?
A: The TGI was over 100 µM.

Q: What about the GI50 (RPMI-8226 leukemia) of the same molecule?
A: Its GI50 is 0.676 µM.

Q: And the TGI (RPMI-8226 leukemia)?
A: The TGI was 28.5 µM.

Q: And the GI50 (RXF 393 renal)?
A: The GI50 was 0.303 µM.

Q: What about the TGI (RXF 393 renal) of the same molecule?
A: The TGI was 11.7 µM.

Q: What about the GI50 (SF-268 CNS) of the same molecule?
A: The GI50 was 1.04 µM.

Q: What about the TGI (SF-268 CNS) of the same molecule?
A: Its TGI is over 100 µM.

Q: And the GI50 (SF-295 CNS)?
A: Its GI50 is 2.89 µM.

Q: And the TGI (SF-295 CNS)?
A: The TGI was over 100 µM.

Q: What about the GI50 (SF-539 CNS) of the same molecule?
A: The GI50 was 0.399 µM.

Q: And the TGI (SF-539 CNS)?
A: Its TGI is 3.53 µM.

Q: And the GI50 (SK-MEL-2 melanoma)?
A: Its GI50 is 0.493 µM.

Q: And the TGI (SK-MEL-2 melanoma)?
A: The TGI was 5.72 µM.

Q: And the GI50 (SK-MEL-28 melanoma)?
A: Its GI50 is 3.14 µM.

Q: What about the TGI (SK-MEL-28 melanoma) of the same molecule?
A: The TGI was over 100 µM.

Q: What about the GI50 (SK-MEL-5 melanoma) of the same molecule?
A: Its GI50 is 0.538 µM.

Q: And the TGI (SK-MEL-5 melanoma)?
A: The TGI was 26.9 µM.

Q: What about the GI50 (SK-OV-3 ovarian) of the same molecule?
A: The GI50 was 0.607 µM.

Q: What about the TGI (SK-OV-3 ovarian) of the same molecule?
A: Its TGI is over 100 µM.

Q: And the GI50 (SN12C renal)?
A: Its GI50 is 0.863 µM.

Q: And the TGI (SN12C renal)?
A: The TGI was over 100 µM.

Q: And the GI50 (SNB-19 CNS)?
A: The GI50 was 1.58 µM.

Q: And the TGI (SNB-19 CNS)?
A: Its TGI is over 100 µM.

Q: And the GI50 (SNB-75 CNS)?
A: The GI50 was 3.68 µM.

Q: And the TGI (SNB-75 CNS)?
A: The TGI was 41.6 µM.

Q: And the GI50 (SW-620 colon)?
A: Its GI50 is 0.679 µM.

Q: What about the TGI (SW-620 colon) of the same molecule?
A: Its TGI is over 100 µM.

Q: And the GI50 (T-47D breast)?
A: Its GI50 is 4.62 µM.

Q: And the TGI (T-47D breast)?
A: The TGI was over 100 µM.

Q: And the GI50 (TK-10 renal)?
A: The GI50 was 7.04 µM.

Q: What about the TGI (TK-10 renal) of the same molecule?
A: Its TGI is 83.5 µM.

Q: What about the GI50 (U251 CNS) of the same molecule?
A: Its GI50 is 0.61 µM.

Q: What about the TGI (U251 CNS) of the same molecule?
A: The TGI was over 100 µM.

Q: What about the GI50 (UACC-62 melanoma) of the same molecule?
A: Its GI50 is 2.18 µM.

Q: What about the TGI (UACC-62 melanoma) of the same molecule?
A: The TGI was over 100 µM.

Q: What about the GI50 (UO-31 renal) of the same molecule?
A: The GI50 was 9.93 µM.

Q: What about the TGI (UO-31 renal) of the same molecule?
A: Its TGI is over 100 µM.
